{
  "source": "patent US7588899B2",
  "about": "“Fluorescent probes for use in protein kinase inhibitor binding assay” (Boehringer Ingelheim Pharmaceuticals, Inc., priority 2003, dated 2009)",
  "target": "STK12 kinase domain (Homo sapiens, UniProt Q96GD4)",
  "sequence (Q96GD4 77-327 limits assumed)": "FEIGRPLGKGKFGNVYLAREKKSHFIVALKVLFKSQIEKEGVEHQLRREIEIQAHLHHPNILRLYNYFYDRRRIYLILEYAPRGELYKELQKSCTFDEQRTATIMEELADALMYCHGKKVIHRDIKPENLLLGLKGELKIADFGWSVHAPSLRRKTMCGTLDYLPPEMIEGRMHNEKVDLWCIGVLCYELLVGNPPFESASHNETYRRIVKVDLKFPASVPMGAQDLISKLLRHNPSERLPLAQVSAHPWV",
  "experiment": "Fluorescence polarization titration of the fluorescent probe with STK12 kinase domain",
  "format": "binding",
  "conditions": "25 nM probe, STK12 kinase domain serially diluted",
  "description": "Step one: Characterization of the Fluorescent Probe\nAn absorbance spectrum is first evaluated for each probe. The excitation and emission spectra are then measured in order to identify the appropriate excitation and emission wavelengths for detecting the probe. An example of such a probe is 6-(2,7-difluoro-6-hydroxy-3-oxo-3H-xanthen-9-yl)-N-[6-(5-nitro-2-phenylamino-pyrimidin-4-ylamino)-hexyl]-isophthalamic acid where the excitation and emission maxima are 496 nm and 524 nm, respectively. These fluorescence spectra were measured on an SLM-8100 fluorimeter with the probe dissolved in an assay buffer (50 mM HEPES, pH 7.4, 100 mM NaCl, 5 mM MgCl2 5 % Glycerol, 200 mM TCEP and 0.01% (w/v) CHAPS, 2 % DMSO).\nThe affinity of the probe for STK12 kinase domain was then determined in a titration experiment. The polarization assay is carried out in Corning® Costar® NBS 96-well solid black flat bottom plates. In this example, an LJL Analyst® assay detection system was used with filters appropriate for the excitation/emission characteristics of the fluorescent probe. STK12 kinase domain was serially diluted into wells containing 25 nM probe to cover a broad concentration range across the plate. In addition, several wells contain either probe alone or probe with the highest concentration of STK12 kinase domain. This is done in order to calculate the Qb/Qf ratio for the probe/kinase domain pair. […]",
  "data": [
    {"smiles": "O=C(NCCCCCCNc1nc(Nc2ccccc2)ncc1[N+](=O)[O-])c1ccc(-c2c3cc(F)c(=O)cc-3oc3cc(O)c(F)cc23)c(C(=O)O)c1", "note": "[Compound G, 6-(2,7-difluoro-6-hydroxy-3-oxo-3H-xanthen-9-yl)-N-[6-(5-nitro-2-phenylamino-pyrimidin-4-ylamino)-hexyl]-isophthalamic acid]", "values": [
      {"measurement": "binding of fluorescent probe to STK12 kinase domain", "value": "binds to the active site of STK12 kinase domain"}
    ]}
  ]
}
